Test results taken from publication PMC11847542 (2025).

How the values were obtained:
[1] = test system: KRAS RNA G4-c (KRAS RG4) (RNA, G4) AAGGUGGCGGCGGCUCG; test: thiazole orange displacement, fluorescence; details: 100 mM K+; 10 mM Tris-HCl pH 7.4; 0.25 μM RNA; tracer 0.5 μM thiazole orange displaced
[2] = test system: KRAS RNA G4-c (KRAS RG4) (RNA, G4) AAGGUGGCGGCGGCUCG; test: CD melting; details: 1 mM K+, 10 mM Tris-HCl pH 7.4, 2 μM RNA
[3] = test system: KRAS RNA G4-c (KRAS RG4) (RNA, G4) AAGGUGGCGGCGGCUCG; test: EMSA; details: 15% native PAGE, Tris-borate-EDTA; 10 μM RNA, 0-50 μM compound
[4] = test system: 5'-Cy5-labeled KRAS RG4 (G4-c) (RNA, G4) AAGGUGGCGGCGGCUCG; test: fluorescence quenching titration of Cy5; details: 100 mM K+; 10 mM Tris-HCl pH 7.4; 1 μM RNA
[5] = test system: DNA hairpin (DNA, hairpin) CGCGCGCGTTTTCGCGCGCG; test: competition: fluorescence recovery of MBD-quenched Cy5-labeled KRAS RG4; details: 100 mM K+; 10 mM Tris-HCl pH 7.4; DNA hairpin added as competitor to 1 μM Cy5-G4-c with MBD
[6] = test system: KRAS RNA G4-b (RNA, G4) GGCGGCGGCAGUGGCGGCGG; test: CD melting; details: 1 mM K+; 10 mM Tris-HCl pH 7.4; 2 μM RNA, 10 μM compound; Tm alone 59.5 °C
[7] = test system: RNA hairpin (RNA, hairpin) GGCCGCCGCAGUGGCGGCGG; test: competition: fluorescence recovery of MBD-quenched Cy5-labeled KRAS RG4; details: 100 mM K+; 10 mM Tris-HCl pH 7.4; RNA hairpin added as competitor to 1 μM Cy5-G4-c with MBD
[8] = test system: KRAS RNA G4-a (RNA, G4) GCGGCGGCGGAGGCAGCA; test: CD melting; details: 1 mM K+; 10 mM Tris-HCl pH 7.4; 2 μM RNA, 10 μM compound; Tm alone 66.0 °C
[9] = test system: 3'-Cy5-labeled KRAS RG4 (G4-c) (RNA, G4) AAGGUGGCGGCGGCUCG; test: fluorescence quenching titration of Cy5; details: 100 mM K+; 10 mM Tris-HCl pH 7.4; 1 μM RNA
[10] = test system: KRAS RNA G4-c (KRAS RG4) (RNA, G4) AAGGUGGCGGCGGCUCG; test: 1H NMR, imino protons; details: K+ (potassium phosphate, concentration not stated), 10% D2O, 25 °C, 200 μM RNA, 1 to 5 equivalents

Row | EC50 [1] [µM] | binding [2] | Structure (SMILES) | further results
1 | 1.5 | yes | Cc1cc2nc3c4ccc(N5CCC(C)CC5)cc4c4cc([N+]5(C)CCC(C)CC5)ccc4c3nc2cc1C (stereo not shown) | –
2 | 7.0 | weak | CC1CCN(c2ccc3c(c2)c2cc([N+]4(C)CCC(C)CC4)ccc2c2nc4cc(Cl)c(Cl)cc4nc32)CC1 (stereo not shown) | –
3 | 1.4 | yes | COc1cc2nc3c4ccc(N5CCC(C)CC5)cc4c4cc([N+]5(C)CCC(C)CC5)ccc4c3nc2cc1OC (stereo not shown) | –
4 | 3.3 | weak | CC1CCN(c2ccc3c(c2)c2cc([N+]4(C)CCC(C)CC4)ccc2c2nc4cc(F)c(F)cc4nc32)CC1 (stereo not shown) | –

More lines, now with the values behind:

Row | Structure (SMILES) | EC50 [1] [µM] | binding [2] | further results
5 | CC1CCN(c2ccc3c(c2)c2cc(N4CCC(C)CC4)ccc2c2nc4cc5ccccc5cc4nc32)CC1 | 45.0 | no | –
6 | CC1CCN(c2ccc3c(c2)c2cc([N+]4(C)CCC(C)CC4)ccc2c2nc4cc5ccccc5cc4nc32)CC1 (stereo not shown) | 1.5 | – | binding [3]: yes; binding [4]: yes; binding [5]: no; binding [6]: yes; binding [7]: no; binding [8]: yes; binding [9]: yes; ΔTm ([2]; 10 μM compound, Tm alone 64.1 °C): 11.0 °C; binding [10]: yes
7 | CC1CCN(c2ccc3c(c2)c2cc([N+]4(C)CCC(C)CC4)ccc2c2nc4ccccc4nc32)CC1 (stereo not shown) | 1.8 | weak | –
